Activity calls are given as the source filed them.
Key:
[1] = viability of uninfected HEp-2 cells – cell-based, HTS, cytotoxicity control for RSV inhibitor project, dose response (AID 2410); assay type: functional; details: human respiratory syncytial virus
[2] = Trypanosoma cruzi growth suppression in host cells – NIH3T3 host cells, beta-gal luminescence, confirmation (AID 2044); assay type: functional, cell-based;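 also: intracellular parasites grown in NIH/3T3 mouse fibroblasts as host cells; luminescent beta-galactosidase reporter signal from transgenic T. cruzi replicating inside host cells; inhibitors lower the luminescence signal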
[3] = viability of PTEN-deleted HCT116 cells – cell-based, HCT116 PTEN knockout, dose response (AID 1047); assay type: functional;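 also: HCT116 colon tumor cells with PTEN knocked out; cells exposed to compound for 60 hours before readout; potency for loss of cell viability measured by luminescence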
[4] = NIH3T3 cell viability loss – ATP luminescence, mouse fibroblasts, counter-screen, dose response (AID 2010); assay type: functional, cell-based;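 also: cells exposed to compound for about 90 hours before reading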
[5] = viability of HCT116 lacking mutant beta-catenin – cell-based, human colon tumor, dose response (AID 1045); assay type: functional;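 also: HCT116 colon tumor cells with beta catenin knocked out; cells exposed to compound for 60 hours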
Cytochrome P450 2D6 = Cytochrome P450 2D6 (Homo sapiens, UniProt P10635);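 also: CYP2D6 member of a cytochrome P450 panel assay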
Cytochrome P450 2C9 = Cytochrome P450 2C9 (Homo sapiens, UniProt P11712)
H4 = test: Luminescence Cell-Based Dose Response HTS to Identify Activators of 5'UTR Stem-Loop Driven Prion Protein mRNA Translation in H4 Neuroglioblastoma Cells. [Related pubchem assays: 1829 (Project Summary), 1814 (Primary HTS)]; assay type: functional; details: Homo sapiens
[6] = target: T1, Heat shock factor protein 1 (Mus musculus, UniProt P38532); test: decrease of HSF1-responsive luciferase luminescence – cell-based, NIH3T3, dose retest, confirmation (AID 2382); assay type: functional;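 also: NIH3T3 fibroblasts with HSF1-driven luciferase reporter stressed by proteasome inhibitor MG132; luminescence from HSF1-driven luciferase expression after 8 hours of MG132 stress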
T1 sequence (P38532 whole entry): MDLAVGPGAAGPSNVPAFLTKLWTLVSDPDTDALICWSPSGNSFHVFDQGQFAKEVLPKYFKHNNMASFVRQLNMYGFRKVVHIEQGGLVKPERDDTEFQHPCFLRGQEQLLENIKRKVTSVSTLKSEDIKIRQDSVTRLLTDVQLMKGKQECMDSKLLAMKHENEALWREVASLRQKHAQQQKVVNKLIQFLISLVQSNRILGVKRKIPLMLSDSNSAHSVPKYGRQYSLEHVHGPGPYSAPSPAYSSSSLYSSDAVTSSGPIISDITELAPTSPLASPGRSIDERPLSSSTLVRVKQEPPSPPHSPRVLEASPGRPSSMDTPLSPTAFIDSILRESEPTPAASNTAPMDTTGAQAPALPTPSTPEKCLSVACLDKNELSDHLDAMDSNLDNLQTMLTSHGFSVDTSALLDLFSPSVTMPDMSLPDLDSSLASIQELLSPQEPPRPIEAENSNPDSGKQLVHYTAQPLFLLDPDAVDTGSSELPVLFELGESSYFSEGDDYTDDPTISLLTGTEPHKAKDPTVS

cells = assay type: functional
Paired box protein Pax-8 = Paired box protein Pax-8 (Homo sapiens, UniProt Q06710); test: PAX8 transcriptional activity inhibition in RMG-I – RMG-I cells, luciferase, cherry-pick, dose response (AID 687027); assay type: functional, cell-based;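 also: luciferase reporter driven by Pax8 target thyroperoxidase promoter measured by SteadyGlo luminescence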
Cytochrome P450 2C19 = Cytochrome P450 2C19 (Homo sapiens, UniProt P33261); test: Cytochrome panel assay with activity outcomes. Panel member name: p450-cyp2c19 Compounds with AC50 equal or less than 10 uM are considered active; assay type: functional
[7] = target: T2, Corticotropin-releasing factor receptor 2/Corticotropin-releasing factor-binding protein (Homo sapiens, UniProt P24387+Q13324); test: Dose Response confirmation of uHTS hits for small molecule antagonists of the CRF-binding protein and CRF-R2 receptor complex.; assay type: functional; details: read-out: IC50_Mean
T2 sequence (Q13324 whole entry): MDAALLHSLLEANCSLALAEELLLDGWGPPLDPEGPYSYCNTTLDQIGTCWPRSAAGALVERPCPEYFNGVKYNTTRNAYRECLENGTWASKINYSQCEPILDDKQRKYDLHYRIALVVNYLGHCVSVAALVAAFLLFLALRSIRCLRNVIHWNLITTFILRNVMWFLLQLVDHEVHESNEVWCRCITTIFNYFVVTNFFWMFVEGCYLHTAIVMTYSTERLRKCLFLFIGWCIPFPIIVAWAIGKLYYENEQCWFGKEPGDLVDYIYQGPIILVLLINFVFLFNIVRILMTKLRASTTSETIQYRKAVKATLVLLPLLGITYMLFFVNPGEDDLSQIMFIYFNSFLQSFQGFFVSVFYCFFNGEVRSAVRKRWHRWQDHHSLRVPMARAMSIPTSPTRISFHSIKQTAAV
T2 sequence (P24387 whole entry): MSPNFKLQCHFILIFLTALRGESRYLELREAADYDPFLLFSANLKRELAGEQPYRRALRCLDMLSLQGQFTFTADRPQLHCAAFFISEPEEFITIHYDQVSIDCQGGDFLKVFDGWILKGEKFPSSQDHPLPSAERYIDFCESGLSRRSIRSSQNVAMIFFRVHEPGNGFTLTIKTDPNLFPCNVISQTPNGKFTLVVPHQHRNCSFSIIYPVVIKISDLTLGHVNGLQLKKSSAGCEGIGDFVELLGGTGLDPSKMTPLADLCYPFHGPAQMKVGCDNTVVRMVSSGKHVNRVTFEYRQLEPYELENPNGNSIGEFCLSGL

[8] = target: T2, Corticotropin-releasing factor receptor 2/Corticotropin-releasing factor-binding protein; test: activators of CRF receptor 2 with binding protein – uHTS hits, confirmation (AID 602473); assay type: functional; details: read-out: EC50_Mean
[9] = NIH-3T3 fibroblast cytotoxicity, dose response, cytotoxicity control, cell-based, fluorescence, Alamar Blue, secondary assay (AID 2327); assay type: functional;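 also: NIH-3T3 mouse fibroblasts cultured with fluconazole at 8 µg/mL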
[10] = luciferase reporter signal suppression in cells – H4 neuroglioma cells, luminescence, dose response (AID 1990); assay type: functional, cell-based
[11] = Luminescence Cell-Based Dose Response HTS to Identify Inhibitors of 5'UTR Stem-Loop Driven Prion Protein mRNA Translation in H4 Neuroglioblastoma Cells. [Related pubchem assays: 1827 (Project Summary), 1813 (Primary HTS)]; assay type: functional
[12] = alpha-synuclein stem-loop luciferase translation blockers – H4 neuroglioma cells, luminescence, confirmation (AID 1988); assay type: functional, cell-based

Sequence of Cytochrome P450 2C9 (P11712 whole entry): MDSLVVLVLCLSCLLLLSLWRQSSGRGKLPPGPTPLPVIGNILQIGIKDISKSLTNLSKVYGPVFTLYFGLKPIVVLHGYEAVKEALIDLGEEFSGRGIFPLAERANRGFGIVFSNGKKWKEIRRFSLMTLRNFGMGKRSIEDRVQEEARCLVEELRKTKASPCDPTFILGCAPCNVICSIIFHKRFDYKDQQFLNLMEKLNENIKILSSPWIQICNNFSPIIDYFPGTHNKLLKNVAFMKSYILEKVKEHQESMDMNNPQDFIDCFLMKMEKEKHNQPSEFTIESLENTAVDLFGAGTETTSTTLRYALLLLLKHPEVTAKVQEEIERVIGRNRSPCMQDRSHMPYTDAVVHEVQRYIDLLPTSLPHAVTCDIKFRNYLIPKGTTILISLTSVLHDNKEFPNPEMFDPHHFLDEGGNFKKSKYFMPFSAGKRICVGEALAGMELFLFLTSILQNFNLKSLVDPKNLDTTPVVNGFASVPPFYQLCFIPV
Sequence of Paired box protein Pax-8 (Q06710 whole entry): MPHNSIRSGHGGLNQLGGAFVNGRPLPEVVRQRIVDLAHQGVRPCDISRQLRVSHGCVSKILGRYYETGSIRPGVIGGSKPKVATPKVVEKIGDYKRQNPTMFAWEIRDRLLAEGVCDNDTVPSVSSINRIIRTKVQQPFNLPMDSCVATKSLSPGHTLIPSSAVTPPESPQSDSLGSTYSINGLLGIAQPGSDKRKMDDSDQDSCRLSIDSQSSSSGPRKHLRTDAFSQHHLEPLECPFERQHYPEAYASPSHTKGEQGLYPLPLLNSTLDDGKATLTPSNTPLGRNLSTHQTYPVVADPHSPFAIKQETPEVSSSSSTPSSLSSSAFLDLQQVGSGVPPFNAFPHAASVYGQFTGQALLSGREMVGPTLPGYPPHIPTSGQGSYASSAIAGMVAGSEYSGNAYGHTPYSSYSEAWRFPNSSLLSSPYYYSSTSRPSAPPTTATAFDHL
Sequence of Cytochrome P450 2C19 (P33261 whole entry): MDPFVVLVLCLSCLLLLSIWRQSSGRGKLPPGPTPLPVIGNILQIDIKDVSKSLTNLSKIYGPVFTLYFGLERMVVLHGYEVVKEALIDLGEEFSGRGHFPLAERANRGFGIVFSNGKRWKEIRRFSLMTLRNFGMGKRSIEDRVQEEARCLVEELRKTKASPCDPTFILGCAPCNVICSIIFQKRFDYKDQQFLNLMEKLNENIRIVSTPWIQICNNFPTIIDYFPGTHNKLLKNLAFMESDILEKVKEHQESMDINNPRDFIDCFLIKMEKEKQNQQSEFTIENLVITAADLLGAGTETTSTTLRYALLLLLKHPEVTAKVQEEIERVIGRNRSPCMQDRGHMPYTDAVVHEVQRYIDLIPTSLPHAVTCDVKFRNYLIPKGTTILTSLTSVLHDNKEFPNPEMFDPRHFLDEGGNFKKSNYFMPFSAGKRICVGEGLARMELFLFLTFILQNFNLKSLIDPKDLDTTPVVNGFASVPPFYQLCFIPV
Sequence of Cytochrome P450 2D6 (P10635 whole entry): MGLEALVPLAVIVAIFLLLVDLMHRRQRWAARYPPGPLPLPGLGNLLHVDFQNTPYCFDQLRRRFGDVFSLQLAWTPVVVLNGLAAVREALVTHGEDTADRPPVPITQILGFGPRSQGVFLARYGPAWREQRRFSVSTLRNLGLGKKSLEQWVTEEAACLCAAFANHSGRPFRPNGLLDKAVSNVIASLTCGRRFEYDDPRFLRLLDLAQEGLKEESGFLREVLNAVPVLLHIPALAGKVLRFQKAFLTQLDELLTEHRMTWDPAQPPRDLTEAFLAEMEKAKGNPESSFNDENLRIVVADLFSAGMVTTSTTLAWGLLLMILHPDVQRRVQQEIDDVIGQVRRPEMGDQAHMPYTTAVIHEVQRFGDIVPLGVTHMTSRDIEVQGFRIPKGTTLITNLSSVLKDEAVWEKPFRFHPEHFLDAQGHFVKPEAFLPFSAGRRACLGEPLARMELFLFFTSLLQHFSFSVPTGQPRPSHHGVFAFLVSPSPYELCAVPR

CCn1c2ccccc2c2cc(NC(=O)c3ccco3)ccc21
CC50 [1]: 16.2 µM (active)

Cc1ccc(S(=O)(=O)N(CC(=O)Nc2ccc(Cl)c([N+](=O)[O-])c2)C2CCCCC2)cc1
EC50 [2]: 3.08 µM (active)
EC50 [3]: 16.2 µM (active)
EC50 [4]: > 60 µM (not active)
EC50 [5]: 19 µM (active)

CCOC(=O)C[C@@H](C(=O)OCC)[C@@H]1CCCCC1=O
AC50 (Cytochrome P450 2D6): 6.31 µM (inconclusive)

COC(=O)c1nn(-c2ccccc2)c(=O)cc1Oc1ccccc1
AC50 (Cytochrome P450 2C9): 11.2 µM (inconclusive)

CCCOc1ccc2c3c(c(=O)oc2c1)CCCC3
CC50 [1]: > 50 µM (active)

CCSc1nc2c(c(-c3ccc(C)o3)c1C#N)CCCC2
CC50 [1]: 37.5 µM (active)

Cc1cc(C(=O)COC(=O)C2=COCCO2)c(C)n1-c1cccc(F)c1
EC50 (H4): 887 nM (active)

Cc1ccccc1-c1cncnc1N(C)Cc1ccco1
AC50 (Cytochrome P450 2D6): 20 µM (inconclusive)

CCOc1nc(C)ccc1-c1noc(-c2cccnc2)n1
EC50 [6]: > 195 µM (not active)

Cc1cc(Br)c2[nH]cc(CCNC(=O)c3ccco3)c2c1
EC50 [6]: > 195 µM (not active)

O=S(=O)(/C=C/c1ccccc1)N1CCC(c2nc(O)c3nnn(Cc4ccccc4)c3n2)CC1
CC50 [1]: 27.7 µM (active)

CCC(C)NC(=O)C1(C)CCC(=O)N1Cc1ccccc1OC (centres undefined)
EC50 [6]: > 195 µM (not active)

Cc1nn(-c2nc3ccccc3s2)c(N)c1Sc1ccc(F)cc1
EC50 [3]: 15.5 µM (active)
EC50 [5]: 19.6 µM (active)

Cc1ccc(S(=O)(=O)N2CCC(C(=O)OCc3ccccc3)CC2)cc1C
IC50 (cells): 18.6 µM (active)

CC(C)OC(=O)c1cc2ccccc2oc1=O
AC50 (Cytochrome P450 2C9): 10 µM (inconclusive)

CC1CCC(NC(=O)c2ccc3c(c2)S(=O)(=O)c2ccccc2C3=O)CC1 (centres undefined)
CC50 [1]: > 50 µM (active)

CCOC(=O)c1cnc2ccc(C(=O)OC)cc2c1Nc1ccc(C(=O)O)cc1
AC50 (Paired box protein Pax-8): 66.4 µM (active)

CCSc1nnc(-c2ccccc2NC(C)=O)c(O)n1
AC50 (Cytochrome P450 2C19): inconclusive
AC50 (Cytochrome P450 2C9): 31.6 µM (inconclusive)

CN(c1ccccc1)P(=O)(N1CC1)N1CC1
IC50 [7]: > 47.1 µM (inactive)
EC50 [8]: > 53 µM (inactive)

COc1ccc2c3c([nH]c2c1)[C@@H](CO)N(C(=O)Nc1cccc(F)c1)CC31CCN(S(=O)(=O)c2cccc(C)c2)CC1
AC50 (Paired box protein Pax-8): 6 µM (active)

O=S(=O)(c1ccccc1F)N1CC[C@@H]2[C@H](CO)Nc3ccc(C4=CCCCC4)cc3[C@@H]21
AC50 (Paired box protein Pax-8): 28.2 µM (active)

C[C@@H]1CN([C@@H](C)CO)C(=O)Cc2cc(NC(=O)Nc3ccc(C(F)(F)F)cc3)ccc2O[C@H]1CN(C)Cc1ccc(Cl)c(Cl)c1
AC50 (Paired box protein Pax-8): 11.1 µM (active)

C=CCn1c(COc2ccccc2)nnc1SCC(=O)N/N=C/c1ccc(C)cc1
AC50 (Cytochrome P450 2C19; read-out: AC50): 15.8 µM (inconclusive)
AC50 (Cytochrome P450 2D6): 39.8 µM (inconclusive)

CC(=O)N(/N=C/c1cccc(C)c1)c1nc(-c2ccc(Br)cc2)cs1
AC50 (Cytochrome P450 2C19; read-out: AC50): 0.0708 µM (inconclusive)
AC50 (Cytochrome P450 2C9): 1.12 µM (inconclusive)

Cc1cc(C(C)(C)C)ccc1OCC(=O)N/N=C\c1c(C)n(C)n(-c2ccccc2)c1=O
EC50 [6]: > 195 µM (not active)

COc1ccc(O)c(/C=N/NC(=O)c2ccc(N3CCCC3=O)cc2)c1
EC50 [9]: > 160 µM (inactive)
EC50 [10]: 14.8 µM (active)
EC50 [11]: 16.3 µM (active)
EC50 [12]: 12.5 µM (active)
AC50 (Paired box protein Pax-8): < 0.26 µM (active)

O=S1(=O)OC(c2ccc(O)cc2)(c2ccc(O)cc2)c2ccccc21 [PHENOLSULFONPHTHALEIN]
AC50 (Cytochrome P450 2C9): 6.31 µM (inconclusive)

Source: ChEMBL document CHEMBL1201862, “PubChem BioAssay data set” (2004)
